Measured values published in patent publication US5977144A (priority 1997, dated 1999).
“Also recorded” adds a separate entry of the source. Read-outs that look alike come from different tables or passages of the source.

Tests used:
rat [1] = conditions: in vivo
Method: Eleven male Sprague-Dawley rats were first trained to press the left lever in a two lever operant conditioning chamber. They had limited access to food for 23 hours prior to the first training session and then received 20 grams of food for the remainder of the study. Once subjects reliably pressed the left lever, a catheter was surgically implanted into the right jugular vein. The catheter consisted of three separate pieces of tubing, a 37 mm length of silicon rubber tubing which entered the circulatory system (Silastic Medical Grade tubing), a 65 mm length of polyethylene tubing (Intramedic, PE10) and a 170 mm length of polyethylene tubing with the same internal diameter (Intramedic, PE20). The catheter exited between the scapulae and could be hooked up to a swivel which itself was connected to a pneumatic syringe. […] Once subjects had recovered from surgery they were trained to complete a fixed ratio 2 schedule (FR 2) to activate the pneumatic syringe. […] Each daily experimental session lasted 50 minutes. After several sessions under these conditions, subjects received an intraperitoneal (IP) injection of physiological saline (1 ml/kg), 15 min prior to the start of the self-administration session. The next day subjects were IP injected with 8 mg/kg of GTS-21, also 15 minutes before the beginning of the session.

rat [2] = test: Focal ischemia infarct size in rats; type: in vivo
Method: FIG. 3. […] Rats received a 30 minute ischemia attack through tying of their common carotid; the amount of cell death (proportional to Infarct Size) was determined 24 hours later. Some animals received the benzylidene-anabaseine compound DMXB (1 mg/kg IP, salt weight) 1 hour before ligation, or the nicotinic antagonist mecamylamine (0.5 mg/kg IP), or both mecamylamine and DMXB, or DMXB 5 minutes after the ligation.
Male Sprague Dawley albino male rats (250-300 g) were anesthetized with a subcutaneous injection of ketamine, xylazine, and acepromazine (3:3:1 mixture, 0.7 cc/kg). Atropine (0.4 mg/kg IP) was injected several min prior to dissection of the carotid artery from the vagus. The internal carotid artery (ICA) was dissected until its proximal bifurcation into the terminal ICA and pterygopalatine arteries were clearly defined. The pterygopalatine artery was clipped parallel to and flush with the terminal ICA. Another clip was applied to the common carotid artery (CCA). The distal aspect of the external carotid artery (ECA) was coagulated and a straight aneurysm clip was applied 4 mm distal to the proximal ICA bifurcation. A suture was passed through the arteriotomized ECA stump into the ICA until the tip was resting against the aneurysm clip. The suture was removed 30 min later, with body temperature maintained between 36.5-37.5° C. The ECA stump was coagulated with bipolar electrocautery. Clips were removed and the wound was irrigated with saline prior to suturing.
Rats were euthanised 24 hours post-infarction and their brains removed and sectioned coronally (2 mm). Sections were placed into a 2% solution of 2,3,5-triphyenyl-tetrazolium cholide (Sigma Chemical Co., St. Louis. Mo.) for 20 minutes at 37° C. The sections were removed to a petri dish and covered with 10% formaldehyde solution. The outline function of the NIH Image computer program (version 1.47) was used to estimate the infarcted and total brain areas for each section. Infarct size was calculated as percent of total brain area.

NMDA receptor = test: High affinity [3H]MK801 binding to rat brain membranes; conditions: concentrations up to 30 μM
NB Lesion = NB Lesion (Table 4); type: in vivo
rat alpha7 receptor = rat alpha7 receptor (Rattus norvegicus, UniProt Q05941); conditions: cited from earlier work
PC12 cells = conditions: Martin et al., 1994, cited from earlier work
[3] = tested on: rat primary neocortical neurons; conditions: Shimohama et al., in press; cited from earlier work
[4] = molecular target: T1, alpha4beta2 receptor (cytisine binding, rat brain membranes) (Rattus norvegicus, UniProt P09483+P12390); test: biochemical; conditions: 1 μM (Table 2); read-out: alpha4beta2 binding: % inhibition of cytistine binding
T1 construct: from tissue; host or cells: rat brain membranes
Excerpt: Further, the cinnamylidene-anabaseines displaced high affinity cytisine binding to rat brain membranes with lower affinity than other types of benzylidene-anabaseines. These observations are consistent with the cinnamylidene-anabaseines having some selectivity for alpha7 receptor subtypes over other types of nicotinic receptors, especially alpha4beta2 receptors, based on the types of receptors to which alpha-bungarotoxin and cytisine bind to in brain.

rat alpha4beta2 receptor [5] = molecular target: T2, rat alpha4beta2 receptor (Rattus norvegicus, UniProt P09483+P12390); test: Antagonism of alpha4beta2 receptors in oocytes (residual inhibition of ACh response after drug); type: cell-based; conditions: xenopus oocytes
Method: Oocytes were prepared and recordings made as described previously (de Fiebre, et al., 1995). Frogs were anesthetized by submersion in 0.1% (3)-aminobenzoic acid ethyl ester and several lobes of the ovary surgically removed through a small incision in the abdomen wall. Oocytes were freed from the follicle cells by treatment with collagenase (in calcium-free Barth's solution: 88 mM NaCl, 1 mM KCl, 15 mM Hepes pH 7.6, 0.33 mM MgSO4, 0.1 mg/ml gentamicin sulfate) for 2 hr at room temperature and Stage 5 oocytes were isolated. Oocytes were rinsed and stored at 18° C. in Barth's saline (88 mM NaCl, 1 mM KCl, 15 mM Hepes pH 7.6, 0.3 mM Ca(NO3)2, 0.41 mM CaCl2, 0.82 mM MgSO4, 0.1 mg/ml gentamicin sulfate) before and after microinjection with RNA. Microinjection was conducted with a Drummond Scientific "Nanoject Variable" automatic injector. Oocytes were injected with a 50 nl solution of specified rat nicotinic subunit mRNA species (2-10 mg/ml; derived from the cDNA containing HIP 306 plasmid kindly provided by Dr. Jim Boulter, Salk Institute) and incubated 2-7 days at 18° C. before electrophysiological recording. electrophysiological recordings, oocytes were perfused in a Warner Instruments RC-8 recording chamber with a perfusion solution containing 115 mM NaCl, 2.5 mM KCl, 10 mM Hepes pH 7.2, 1.8 mM CaCl2 and 1 μM atropine to block muscarinic responses. Perfusion was continuous at a rate of 10 ml/min. Drags were diluted in perfusion solution and applied using a solenoid valve to switch from perfusion to drug solutions. Current responses to drug administration were studied under two electrode voltage clamp at a holding potential of -70 mV using a Dagan Corp. TEV-200 voltage clamp connected to a 386-SX IBM computer using a TL-1 DMA interface (Axon Instruments). […] Drug responses are analyzed with PClamp software (Axon Instruments). […]
Antagonist properties subsequent to agonist activity were measured as a decrease in responsiveness to ACh applied 5 min after compound-application, normalized to ACh application instead of the anabaseine-derivative (FIG. 13A AND FIG. 13B).

rat alpha4beta2 receptor [6] = molecular target: T2, rat alpha4beta2 receptor; test: Activation of alpha4beta2 receptors expressed in Xenopus oocytes; type: cell-based; conditions: read-out: alpha4beta2 activation: % response observed with 10 μM acetylcholine

Sequence of rat alpha7 receptor (Q05941 23-502): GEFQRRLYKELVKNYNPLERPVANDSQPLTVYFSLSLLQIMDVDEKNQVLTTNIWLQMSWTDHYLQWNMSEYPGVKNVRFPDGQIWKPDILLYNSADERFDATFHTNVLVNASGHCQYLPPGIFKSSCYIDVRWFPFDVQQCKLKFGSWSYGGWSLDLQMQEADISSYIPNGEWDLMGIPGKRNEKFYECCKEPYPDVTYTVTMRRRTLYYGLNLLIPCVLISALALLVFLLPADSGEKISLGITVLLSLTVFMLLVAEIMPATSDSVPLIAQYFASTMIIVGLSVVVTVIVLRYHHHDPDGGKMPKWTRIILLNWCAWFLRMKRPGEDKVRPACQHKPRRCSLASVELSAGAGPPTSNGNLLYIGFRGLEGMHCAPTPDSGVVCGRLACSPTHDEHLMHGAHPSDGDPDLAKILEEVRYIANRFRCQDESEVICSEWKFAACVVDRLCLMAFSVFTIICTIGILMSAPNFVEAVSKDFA
T2 sequence (P09483 31-630): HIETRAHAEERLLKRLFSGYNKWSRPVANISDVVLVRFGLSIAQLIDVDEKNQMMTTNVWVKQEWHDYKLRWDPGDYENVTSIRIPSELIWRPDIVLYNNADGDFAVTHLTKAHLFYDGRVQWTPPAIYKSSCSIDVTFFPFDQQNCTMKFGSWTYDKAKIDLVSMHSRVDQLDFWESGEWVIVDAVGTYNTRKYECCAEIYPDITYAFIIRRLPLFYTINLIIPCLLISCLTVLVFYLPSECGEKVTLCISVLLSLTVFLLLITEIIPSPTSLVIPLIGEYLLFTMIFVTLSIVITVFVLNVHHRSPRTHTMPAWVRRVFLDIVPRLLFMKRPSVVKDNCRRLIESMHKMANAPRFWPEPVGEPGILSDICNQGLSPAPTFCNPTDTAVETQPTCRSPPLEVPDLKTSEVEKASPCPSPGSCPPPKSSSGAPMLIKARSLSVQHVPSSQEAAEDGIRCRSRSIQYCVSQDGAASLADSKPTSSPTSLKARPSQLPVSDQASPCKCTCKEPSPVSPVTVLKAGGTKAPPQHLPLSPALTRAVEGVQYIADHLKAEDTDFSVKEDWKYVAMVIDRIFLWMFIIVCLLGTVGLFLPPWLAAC
T2 sequence (P12390 25-500): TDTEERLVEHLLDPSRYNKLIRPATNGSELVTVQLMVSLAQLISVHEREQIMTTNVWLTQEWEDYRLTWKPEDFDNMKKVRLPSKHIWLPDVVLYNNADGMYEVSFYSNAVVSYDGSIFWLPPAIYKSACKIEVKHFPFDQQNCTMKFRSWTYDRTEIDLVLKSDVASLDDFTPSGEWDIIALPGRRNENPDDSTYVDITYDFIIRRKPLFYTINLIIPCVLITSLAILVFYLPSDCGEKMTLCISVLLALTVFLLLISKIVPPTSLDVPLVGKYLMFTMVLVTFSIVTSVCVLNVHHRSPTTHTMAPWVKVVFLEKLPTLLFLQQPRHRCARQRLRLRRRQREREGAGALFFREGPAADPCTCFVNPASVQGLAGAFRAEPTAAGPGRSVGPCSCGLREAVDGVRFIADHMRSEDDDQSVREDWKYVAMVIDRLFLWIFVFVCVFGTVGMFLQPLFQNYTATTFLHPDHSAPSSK
T1 sequence (P09483 31-630): as the sequence (P09483 31-630) above
T1 sequence (P12390 25-500): as the sequence (P12390 25-500) above

Structure (SMILES) | nicotine self-administration (in words) (rat [1]) | protection against infarct / cell loss, given before ischemia (in words) (rat [2]; 1 mg/kg IP before ischemia) | infarct size (mean value) (rat [2]; coronal section 5 mm posterior to frontal pole, saline 28%) [%] | protection against infarct, given during or after start of ischemia (in words) (rat [2]; during 30 min ischemic insult) | interference with high affinity [3H]MK801 binding (in words) (NMDA receptor) | NB Lesion (NB Lesion) | α7 agonist activity (in words) (rat alpha7 receptor; background/literature) | selectivity α7 over α4β2 / other nicotinic subtypes (in words) (rat alpha7 receptor; literature) | activity of ACh at α7 receptors (rat alpha7 receptor; partial agonist) | activity against trophic factor deprivation in PC12 cells (in words) (PC12 cells; listed as GTS 21) | activity against trophic factor deprivation in PC12 cells (in words) (PC12 cells; listed as GTS-21) | activity against NMDA-receptor activation (in words) [3] | inhibition at 1 µM [4] [%] | alpha4beta2 antagonism: % of antagonism of acetylcholine administered after drug (rat alpha4beta2 receptor [5]) | Emax (rat alpha4beta2 receptor [6]) [%]
COc1ccc(/C=C2\CCCN=C2c2cccnc2)c(OC)c1 [DMXB, 3-(2,4-Dimethoxybenzylidene) anabaseine] | inhibits nicotine self-administration; also recorded: less likely to self-administer nicotine | protected principally in the posterior infarct area; also recorded: protected against cell loss; also recorded: did not have as much cell loss | 19 | ineffective | did not interfere | + (≥ 0.5) | weak partial agonist activity | selective as an agonist for α7 versus other nicotinic receptor subtypes | about 20% | sufficient to reduce this neurotoxicity | neuroprotective activity | neuroprotective activity | – | – | –
COc1ccccc1/C=C/C=C1\CCCN=C1c1cccnc1 [2-MeOCA, E,E-3-(2-Methoxycinnamylidene)anabaseine] | – | – | – | – | – | – | – | – | – | – | – | – | 29 | 10 | < 3
